Data on 2 molecules can be found in patent US9303036B2, “Crystalline asenapine hydrochloride salt forms” (Sandoz AG, priority 2011, dated 2016).

Structures can show the parent of a compound that is named as a salt.

Data set [1] can be described thus: Water uptake by dynamic vapor absorption. The format is physicochemical. The protocol:
Asenapine HCl dihydrate of the invention can absorb about 1.5% of additional water at 95% relative humidity at 25° C. and most of the water uptake occurs above 80% relative humidity as shown by dynamic vapor absorption.

Data set [2] can be described thus: Aqueous solubility by suspension equilibration in water, concentration in filtrate by HPLC. The class given is physicochemical. The procedure:
The aqueous solubility was determined after 40 hours of suspension equilibration at 25° C. Thereafter, the suspension was filtered and the concentration in the liquid phase was determined by HPLC. The excellent solubility of the Asenapine hydrochloride dihydrate of the invention may render the salt to an excellent alternative to known salts of Asenapine, especially for a fast dissolving formulation.
An HPLC instrument from TSP (UV3000, AS3000, P4000, SCM1000 using software version 4.1) was used in combination with a column from Waters (XTerra MS 018, 4.6×100 mm, 5 μm (CC01A)). The mobile phase A was H2O/ACN 95:5 with 0.1% TFA, and mobile phase B was H2O/ACN 5:95 with 0.1% TFA. The reference concentration was 0.09 mg/mL. The Asenapine peak appeared at a retention time.
4.0-4.1 min. The method was isocratic with 70% mobile phase A and 30% mobile phase B at 0 min and after 10 min at a flow of 1.0 mL/min. The injection volume was 10 μL and the detection wavelength 202 nm.
The aqueous solubility of Asenapine salts is determined in water after 48 hours of suspension equilibration at 25° C. 200 mg of Asenapine hydrochloride is suspended in 1.5 ml of bidistilled water and the resulting suspension is placed on a laboratory shaker at 500 rpm. Thereafter, the suspension is filtered and the concentration in the liquid phase was determined by HPLC as described above. […]

The nature of data set [3]: Solubility of Asenapine maleate in saturated solution (Funke et al., literature). The class given is physicochemical. Conditions: water (saturated solution), thermodynamic from solid, converted from the maleate salt value at 23° C., pH=4.4, read-out: free base solubility. The source says: Certain crystalline addition salts of Asenapine, for instance a fumarate (EP 0569096), salts with sulfonic acids (WO 98/54186), and a pamoate or hemipamoate salt (EP 0569096), are described in the literature. The pamoate salt is disclosed to be amorphous and the hemipamoate salt is a mixture of amorphous and crystalline phase, wherein the palmitate is described as oil. The marketed form is the maleate salt, which is disclosed to exist in polymorphic forms (WO 2006/106135). The known Asenapine salts have a low solubility in water.

For data set [4] the following is noted: 23° C., pH=4.4; cited from earlier work.

Take `CN1C[C@H]2c3ccccc3Oc3ccc(Cl)cc3[C@@H]2C1` (relative stereo) [Asenapine HCl dihydrate, trans-5-chloro-2-methyl-2,3,3a,12b-tetrahydro-1H-dibenz[2,3:6,7]oxepino[4,5-c]pyrrole]: the additional water absorbed entry in data set [1] (95% relative humidity at 25° C., most uptake above 80% relative humidity) is “about 1.5%”. In addition, in data set [1] (dynamic vapor absorption, 25° C.), the hygroscopicity result was “not, or only very slightly hygroscopic”. Also, the solubility at 2 days in data set [2] (pH 4, thermodynamic from solid, 25° C., 600 rpm, two days of equilibration, at a pH of 4.0, read-out: aqueous solubility (concentration of Asenapine in the filtered solution by HPLC)) was found to be 24.2 mg/mL. In data set [2] (thermodynamic from solid, at 25° C., calculated as free base, after 40 hours of suspension equilibration, HPLC), the solubility at 40 h is 24.2 mg/mL.

In the case of `CN1C[C@@H]2c3ccccc3Oc3ccc(Cl)cc3[C@H]2C1` (relative stereo) [maleate salt of Asenapine, trans-5-chloro-2-methyl-2,3,3a,12b-tetrahydro-1H-dibenz[2,3:6,7]oxepino[4,5-c]pyrrole], in data set [3], the solubility was roughly 4100 µg/mL. Moreover, in data set [4], the “concentration of saturated solution” value was 5.8 mg/mL.
